Results taken from US9642367B2, “Microbicidal composition” (Dow Global Technologies LLC, priority 2013, dated 2017).

Columns and labels:
Format in all cases: cell-based
[1] = tested on: Escherichia coli (E. coli, ATCC #8739); assay: MIC / synergy evaluation in 96 well microtiter plate, bacteria in Tryptic Soy Broth; conditions: visual turbidity; for MIC: Escherichia coli, ATCC8739, single active acting alone, read-out: Minimum Inhibitory Concentration
Excerpt: (§1) One measure of synergism is the industrially accepted method described by Kull, F. C.; Eisman, P. C.; Sylwestrowicz, H. D. and Mayer, R. L., in Applied Microbiology 9:538-541 (1961), using the ratio determined by the formula: Qa/QA+Qb/QB=Synergy Index (“SI”) wherein:
(§2) QA=concentration of compound A (first component) in ppm, acting alone, which produced an end point (MIC of Compound A).
(§3) Qa=concentration of compound A in ppm, in the mixture, which produced an end point.
(§4) QB=concentration of compound B (second component) in ppm, acting alone, which produced an end point (MIC of Compound B).
(§5) Qb=concentration of compound B in ppm, in the mixture, which produced an end point.
(§6) When the sum of Qa/QA and Qb/QB is greater than one, antagonism is indicated. […] The lower the SI, the greater the synergy shown by that particular mixture. The minimum inhibitory concentration (MIC) of a microbicide is the lowest concentration tested under a specific set of conditions that prevents the growth of added microorganisms. The microorganisms tested were Escherichia coli(E. coli, ATCC #8739), a yeast, Candida albicans (C. albicans, ATCC #10231) and mold, Aspergillus niger (A. niger, ATCC #16404).
(§7) MBIT synergy with a secondary biocide was determined by evaluating the minimum biocide or biocide blend concentration required to inhibit microbial growth. All studies were conducted using a 96 well microtiter plate format. For all studies, 200 μl of microbial growth media, containing various concentrations of MBIT alone, the secondary biocide alone, or combinations of both biocide chemistries, was added to individual wells of a microtiter plate. Specifically, Tryptic Soy Broth (TSB) was utilized for bacteria (E. coli, ATCC #8739), Yeast Malt Extract Broth (YMB) for yeast (Candida albicans, ATCC #10231) and Potato Dextrose Broth (PDB) for mold (Aspergillus niger, ATCC #16404). Test organisms, at a final concentration of 10^4 CFU/mL or 10^4 spores/mL, were applied to each well in parallel experiments to initiate the MIC evaluations. Growth medium containing no biocide was utilized as a control in each experimental setup to confirm the growth viability of each organism. Eight concentrations (2-fold dilutions) of each individual biocide were evaluated in the microbial growth inhibition studies in addition to the 64 possible combinations of these biocide concentrations. Evaluation of the individual biocide concentrations is required to achieve an inhibitory concentration end point for synergy index calculation. […] Individual wells were scored as growth or no growth based on visual organism growth turbidity.
(§8) These microorganisms are representative of natural contaminants in many consumer and industrial applications. […] (yeast and mold) or 30° C. (bacteria).

[2] = tested on: Candida albicans (C. albicans, ATCC #10231); assay: MIC / synergy evaluation in 96 well microtiter plate, yeast in Yeast Malt Extract Broth; conditions: visual turbidity; for MIC: Candida albicans, ATCC10231, single active acting alone, read-out: Minimum Inhibitory Concentration
Excerpt: as §1, §2, §3, §4, §5, §6, §7, §8

[3] = tested on: Aspergillus niger (A. niger, ATCC #16404); assay: MIC / synergy evaluation in 96 well microtiter plate, mold in Potato Dextrose Broth; conditions: ATCC16404, single active acting alone, visual turbidity, read-out: Minimum Inhibitory Concentration
Excerpt: as §1, §2, §3, §4, §5
When the sum of Qa/QA and Qb/QB is greater than one, antagonism is indicated. […] The lower the SI, the greater the synergy shown by that particular mixture. […]
MBIT synergy with a secondary biocide was determined by evaluating the minimum biocide or biocide blend concentration required to inhibit microbial growth. […] Eight concentrations (2-fold dilutions) of each individual biocide were evaluated in the microbial growth inhibition studies in addition to the 64 possible combinations of these biocide concentrations. […] Individual wells were scored as growth or no growth based on visual organism growth turbidity. […]

MIC [1] [µg/mL] | MIC [2] [µg/mL] | MIC [3] [µg/mL] | SMILES | Minimum Inhibitory Concentration ([1]; single active acting alone) [ppm] | Minimum Inhibitory Concentration ([2]; single active acting alone) [ppm]
5000 | 750 | 40000 | CC(O)C(=O)O (stereo not shown) [Lactic acid, lactic acid] | – | –
– | – | – | Cn1sc2ccccc2c1=O [MBIT, N-methyl-1,2-benzisothiazolin-3-one] | 12.50 | 1.50
2500 | 188 | – | O=C(O)CCCCCCCC(=O)O [Azelaic acid, azelaic acid] | – | –
10000 | 7.82 | 38 | C=CCCCCCCCCC(=O)O [Undecylenic acid, undecylenic acid] | – | –
